Laboratory results from US20250388605A1, “HETEROBIFUNCTIONAL COMPOUNDS AND METHODS OF TREATING DISEASE” (Halda Therapeutics OpCo, Inc., priority 2022, published 2025).

Tests used:
BRD4-BD1 = molecular target: T1, BRD4-BD1 (Homo sapiens, UniProt O60885); experiment: Binding affinity to BRD4-BD1 (bromoKdELECT assay); details: 11-point 3-fold dilution series
T1 construct: made in house; host or cells: T7 phage grown in an E. coli host derived from the BL21 strain

BRD4-BD2 = molecular target: T2, BRD4-BD2 (Homo sapiens, UniProt O60885); experiment: Binding affinity to BRD4-BD2 (bromoKdELECT assay); details: 11-point 3-fold dilution series
T2 construct: made in house; host or cells: T7 phage grown in an E. coli host derived from the BL21 strain

VCaP cells = experiment: Cellular growth inhibition assay for VCaP cells, CellTiter-Glo; format: cell-based, human; details: 72 hours
In short: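 GI50 values come from four-parameter curve fits of luminescence data normalized to a zero baseline. Compound, in medium with 0.5% DMSO, was added one day after plating and left for 72 h before CellTiter-Glo 2.0 addition.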

Kd (BRD4-BD1)	Kd (BRD4-BD2)	GI50 (VCaP cells; Homo sapiens)	GI50 (VCaP cells)	SMILES
< 50 nM	< 50 nM	< 500 nM	–	CCS(=O)(=O)Nc1ccc(Oc2cccc(NCCOC3CCN(c4ncc(C(=O)N[C@H]5C(C)(C)[C@H](Oc6ccc(C#N)c(Cl)c6)C5(C)C)cn4)CC3)c2)c(-c2cn(C)c(=O)c3[nH]ccc23)c1 [Compound I-84]
500 to 2500 nM	50 to 500 nM	< 500 nM	–	CN(c1ccc(Oc2cccc(N3CC(N4CCN(c5ncc(C(=O)N[C@H]6C(C)(C)[C@H](Oc7ccc(C#N)c(Cl)c7)C6(C)C)cn5)CC4)C3)c2)c(-c2cn(C)c(=O)c3[nH]ccc23)c1)S(=O)(=O)C1CC1 [Compound I-88, N-((1r, 3r)-3-(3-chloro-4-cyanophenoxy)-2,2,4,4-tetramethylcyclobutyl)-2-(4-(1-(3-(2-(6-methyl-7-oxo-6,7-dihydro-1H-pyrrolo[2,3-c]pyridin-4-yl)-4-(N-methylcyclopropanesulfonamido)phenoxy)phenyl)azetidin-3-yl)piperazin-1-yl)pyrimidine-5-carboxamide]
500 to 2500 nM	50 to 500 nM	< 500 nM	–	Cn1cc(-c2cc(C(C)(C)O)ccc2Oc2cccc(OCCN3CCN(c4ncc(C(=O)N[C@H]5C(C)(C)[C@H](Oc6ccc(C#N)c(Cl)c6)C5(C)C)cn4)CC3)c2)c2cc[nH]c2c1=O [Compound I-96]
> 2500 nM	> 2500 nM	< 500 nM	–	Cn1cc(-c2ccccc2Oc2cccc(OCCN3CCN(c4ncc(C(=O)N[C@H]5C(C)(C)[C@H](Oc6ccc(C#N)c(Cl)c6)C5(C)C)cn4)CC3)c2)c2cc[nH]c2c1=O [Compound I-98]
50 to 500 nM	50 to 500 nM	> 3000 nM	–	CC(C)c1ccc(Oc2cccc(OCCN3CCN(c4ncc(C(=O)NC5C(C)(C)C(Oc6ccc(C#N)c(Cl)c6)C5(C)C)cn4)CC3)c2)c(-c2cn(C)c(=O)c3[nH]ccc23)c1 (stereo not drawn) [Compound I-107, N-[3-(3-chloro-4-cyano-phenoxy)-2,2,4,4-tetramethyl-cyclobutyl]-2-[4-[2-[3-[4-isopropyl-2-(6-methyl-7-oxo-1H-pyrrolo[2,3-c]pyridin-4-yl)phenoxy]phenoxy]ethyl]piperazin-1-yl]pyrimidine-5-carboxamide]
> 2500 nM	> 2500 nM	< 500 nM	–	CCS(=O)(=O)Nc1ccc(Oc2cccc(OCCOC3CCN(c4ncc(C(=O)N[C@H]5C(C)(C)[C@H](Oc6ccc(C#N)c(Cl)c6)C5(C)C)cn4)CC3)c2)c(-c2cn(C)c(=O)c3c2ccn3C)c1 [Compound I-121]
50 to 500 nM	< 50 nM	< 500 nM	–	CCS(=O)(=O)Nc1ccc(Oc2cccc(N3CCN(C4CN(c5ncc(C(=O)N[C@H]6C(C)(C)[C@H](Oc7ccc(C#N)c(Cl)c7)C6(C)C)cn5)C4)CC3)c2)c(-c2cn(C)c(=O)c3[nH]ccc23)c1 [Compound I-126]
> 2500 nM	500 to 2500 nM	–	< 500 nM	CCS(=O)(=O)Nc1ccc(Oc2ccc(OCC3CCN(c4ncc(C(=O)N[C@H]5C(C)(C)[C@H](Oc6ccc(C#N)c(Cl)c6)C5(C)C)cn4)CC3)cc2)c(-c2cn(C)c(=O)c3[nH]ccc23)c1 [Compound I-138]
> 2500 nM	500 to 2500 nM	< 500 nM	–	Cn1cc(-c2cc(C(C)(C)O)ccc2Oc2cccc(OCCC3CCN(c4ncc(C(=O)N[C@H]5C(C)(C)[C@H](Oc6ccc(C#N)c(Cl)c6)C5(C)C)cn4)CC3)c2F)c2cc[nH]c2c1=O [Compound I-142]
> 2500 nM	< 50 nM	–	< 500 nM	Cn1cc(-c2cc(C(C)(C)O)ccc2Oc2cccc(CCOC3CCN(c4ncc(C(=O)N[C@H]5C(C)(C)[C@H](Oc6ccc(C#N)c(Cl)c6)C5(C)C)cn4)CC3)c2F)c2cc[nH]c2c1=O [Compound I-147]
500 to 2500 nM	50 to 500 nM	–	> 3000 nM	Cn1cc(-c2cc(C(C)(C)O)ccc2Oc2cccc(OCCC3CCN(c4ncc(C(=O)N[C@H]5C(C)(C)[C@H](Oc6ccc(C#N)c(Cl)c6)C5(C)C)cn4)CC3)c2)c2cc[nH]c2c1=O [Compound I-156]
> 2500 nM	< 50 nM	–	< 500 nM	Cn1cc(-c2cc(C(C)(C)O)ccc2Oc2cccc(CCOC3CCN(c4ncc(C(=O)N[C@H]5C(C)(C)[C@H](Oc6ccc(C#N)c(Cl)c6)C5(C)C)cn4)CC3)c2)c2cc[nH]c2c1=O [Compound I-193]
> 2500 nM	< 50 nM	500 to 1500 nM	–	Cn1cc(-c2cc(C(C)(C)O)ccc2Oc2ccc(CCOC3CCN(c4ncc(C(=O)N[C@H]5C(C)(C)[C@H](Oc6ccc(C#N)c(Cl)c6)C5(C)C)cn4)CC3)cc2)c2cc[nH]c2c1=O [Compound I-194]
50 to 500 nM	< 50 nM	< 500 nM	–	CN(c1ccc(Oc2ccc(C(C)(C)O)cc2-c2cn(C)c(=O)c3[nH]ccc23)cc1)C1CCN(c2ncc(C(=O)N[C@H]3C(C)(C)[C@H](Oc4ccc(C#N)c(Cl)c4)C3(C)C)cn2)CC1 [Compound I-197]
> 2500 nM	> 2500 nM	1500 to 3000 nM	–	Cn1cc(-c2cc(C(C)(C)O)ccc2Oc2ccc(CCC3CCN(c4ncc(C(=O)N[C@H]5C(C)(C)[C@H](Oc6ccc(C#N)c(Cl)c6)C5(C)C)cn4)CC3)cc2)c2cc[nH]c2c1=O [Compound I-203]

The remaining lines, values behind:

SMILES	Kd (BRD4-BD1)	Kd (BRD4-BD2)	GI50 (VCaP cells; Homo sapiens)	GI50 (VCaP cells)
Cn1cc(-c2ccccc2Oc2cccc(N3CC(N4CCN(c5ncc(C(=O)N[C@H]6C(C)(C)[C@H](Oc7ccc(C#N)c(Cl)c7)C6(C)C)cn5)CC4)C3)c2)c2cc[nH]c2c1=O [Compound I-90, N-((1r, 3r)-3-(3-chloro-4-cyanophenoxy)-2,2,4,4-tetramethylcyclobutyl)-2-(4-(1-(3-(2-(6-methyl-7-oxo-6,7-dihydro-1H-pyrrolo[2,3-c]pyridin-4-yl)phenoxy)phenyl)azetidin-3-yl)piperazin-1-yl)pyrimidine-5-carboxamide]	> 2500 nM	> 2500 nM	< 500 nM	–
CN(c1ccc(Oc2cccc(N3CC(N4CCN(c5ncc(C(=O)N[C@H]6C(C)(C)[C@H](Oc7ccc(C#N)c(Cl)c7)C6(C)C)cn5)CC4)C3)c2F)c(-c2cn(C)c(=O)c3[nH]ccc23)c1)S(=O)(=O)C1CC1 [Compound I-91]	50 to 500 nM	< 50 nM	< 500 nM	–
Cn1cc(-c2cc(C(C)(C)O)ccc2Oc2cccc(N3CC(N4CCN(c5ncc(C(=O)N[C@H]6C(C)(C)[C@H](Oc7ccc(C#N)c(Cl)c7)C6(C)C)cn5)CC4)C3)c2F)c2cc[nH]c2c1=O [Compound I-92, N-((1r, 3r)-3-(3-chloro-4-cyanophenoxy)-2,2,4,4-tetramethylcyclobutyl)-2-(4-(1-(2-fluoro-3-(4-(2-hydroxypropan-2-yl)-2-(6-methyl-7-oxo-6,7-dihydro-1H-pyrrolo[2,3-c]pyridin-4-yl)phenoxy)phenyl)azetidin-3-yl)piperazin-1-yl)pyrimidine-5-carboxamide]	50 to 500 nM	50 to 500 nM	< 500 nM	–
Cn1cc(-c2ccccc2Oc2cccc(N3CC(N4CCN(c5ncc(C(=O)N[C@H]6C(C)(C)[C@H](Oc7ccc(C#N)c(Cl)c7)C6(C)C)cn5)CC4)C3)c2F)c2cc[nH]c2c1=O [Compound I-94]	500 to 2500 nM	50 to 500 nM	> 3000 nM	–
Cn1cc(-c2cc(C(C)(C)O)ccc2Oc2cccc(OCCN3CCN(c4ncc(C(=O)N[C@H]5C(C)(C)[C@H](Oc6ccc(C#N)c(Cl)c6)C5(C)C)cn4)CC3)c2F)c2cc[nH]c2c1=O [Compound I-99]	500 to 2500 nM	< 50 nM	< 500 nM	–
Cn1cc(-c2cc(C(C)(C)O)ccc2Oc2cccc(N3CC(N4CCN(c5ncc(C(=O)N[C@H]6C(C)(C)[C@H](Oc7ccc(C#N)c(Cl)c7)C6(C)C)cn5)CC4)C3)c2)c2cc[nH]c2c1=O [Compound I-105]	500 to 2500 nM	< 50 nM	< 500 nM	–
Cn1cc(-c2cc(C(C)(C)O)ccc2Oc2cccc(CCCN3CCN(c4ncc(C(=O)N[C@H]5C(C)(C)[C@H](Oc6ccc(C#N)c(Cl)c6)C5(C)C)cn4)CC3)c2)c2cc[nH]c2c1=O [Compound I-110]	500 to 2500 nM	< 50 nM	< 500 nM	–
Cn1cc(-c2ccccc2Oc2cccc(OCCOC3CCN(c4ncc(C(=O)N[C@H]5C(C)(C)[C@H](Oc6ccc(C#N)c(Cl)c6)C5(C)C)cn4)CC3)c2)c2ccn(C)c2c1=O [Compound I-137]	> 2500 nM	> 2500 nM	> 3000 nM	–
Cn1cc(-c2cc(C(C)(C)O)ccc2Oc2cccc(CCCN3CCN(c4ncc(C(=O)N[C@H]5C(C)(C)[C@H](Oc6ccc(C#N)c(Cl)c6)C5(C)C)cn4)CC3)c2F)c2cc[nH]c2c1=O [Compound I-143]	50 to 500 nM	< 50 nM	< 500 nM	–
CCS(=O)(=O)c1ccc(Oc2cccc(OCCOC3CCN(c4ccc(C(=O)N[C@H]5C(C)(C)[C@H](Oc6ccc(C#N)c(Cl)c6)C5(C)C)cn4)CC3)c2F)c(-c2cn(C)c(=O)c3[nH]ccc23)c1 [Compound I-185]	50 to 500 nM	< 50 nM	< 500 nM	–
Cn1cc(-c2cc(C(C)(C)O)ccc2Oc2cccc(N3CC(OC4CCN(c5ncc(C(=O)N[C@H]6C(C)(C)[C@H](Oc7ccc(C#N)c(Cl)c7)C6(C)C)cn5)CC4)C3)c2F)c2cc[nH]c2c1=O [Compound I-190]	500 to 2500 nM	50 to 500 nM	–	< 500 nM
Cc1ccc(CCCOC2CCN(c3ncc(C(=O)N[C@H]4C(C)(C)[C@H](Oc5ccc(C#N)c(Cl)c5)C4(C)C)cn3)CC2)cc1Oc1ccc(C(C)(C)O)cc1-c1cn(C)c(=O)c2[nH]ccc12 [Compound I-192]	> 2500 nM	50 to 500 nM	500 to 1500 nM	–
Cc1ccc(CCCOC2CCN(c3ncc(C(=O)N[C@H]4C(C)(C)[C@H](Oc5ccc(C#N)c(Cl)c5)C4(C)C)cn3)CC2)c(C)c1Oc1ccc(C(C)(C)O)cc1-c1cn(C)c(=O)c2[nH]ccc12 [Compound I-195]	> 2500 nM	> 2500 nM	> 3000 nM	–
Cn1cc(-c2cc(C(C)(C)O)ccc2Oc2cccc(N3CC(CC4CCN(c5ncc(C(=O)N[C@H]6C(C)(C)[C@H](Oc7ccc(C#N)c(Cl)c7)C6(C)C)cn5)CC4)C3)c2F)c2cc[nH]c2c1=O [Compound I-196]	50 to 500 nM	< 50 nM	–	> 3000 nM
